The structures appear in SMILES notation. ≈ marks a conversion by molar mass, not a printed value. Calls of active or inactive are those of the source. The rule behind the calls is not given here.

Results on two compounds are retold here after ChEMBL document CHEMBL1255438, “Comparative activities of TR-700 (torezolid) against staphylococcal blood isolates collected in Spain” (2010).

Format in all cases: functional
Assay [1] concerns Staphylococcus aureus. Nature of the assay: Antimicrobial activity against linezolid-susceptible Staphylococcus aureus by CLSI method.
For assay [2], the system named is Staphylococcus aureus. Kind of assay: Antimicrobial activity against linezolid-susceptible Staphylococcus aureus assessed as percent susceptible strain by CLSI method.
The test system of assay [3] is Staphylococcus aureus. Nature of the assay: Antimicrobial activity against oxacillin-susceptible Staphylococcus aureus by CLSI method.
Assay [4] deals with Staphylococcus aureus. Kind of assay: Antimicrobial activity against oxacillin-susceptible Staphylococcus aureus assessed as percent susceptible strain by CLSI method.
The subject of assay [5] is Staphylococcus aureus. Kind of assay: Antimicrobial activity against oxacillin-resistant Staphylococcus aureus by CLSI method.
Assay [6] has as its system Staphylococcus aureus. Kind of assay: Antimicrobial activity against oxacillin-resistant Staphylococcus aureus assessed as percent susceptible strain by CLSI method.
The test system of assay [7] is Staphylococcus aureus. Nature of the assay: Antimicrobial activity against linezolid-resistant Staphylococcus aureus by CLSI method.
Assay [8] deals with Staphylococcus aureus. Nature of the assay: Antimicrobial activity against linezolid-resistant Staphylococcus aureus assessed as percent susceptible strain by CLSI method.
Assay [9] has as its system Staphylococcus. Kind of assay: Antimicrobial activity against linezolid-susceptible coagulase-negative Staphylococcus by CLSI method.
Assay [10] concerns Staphylococcus. Nature of the assay: Antimicrobial activity against linezolid-susceptible coagulase-negative Staphylococcus assessed as percent susceptible strain by CLSI method.
In assay [11] the test system is Staphylococcus. Kind of assay: Antimicrobial activity against oxacillin-susceptible coagulase-negative Staphylococcus aureus by CLSI method.
Assay [12] in a line: Antimicrobial activity against oxacillin-susceptible coagulase-negative Staphylococcus aureus assessed as percent susceptible strain by CLSI method.
Assay [13] has as its system Staphylococcus. Kind of assay: Antimicrobial activity against oxacillin-resistant coagulase-negative Staphylococcus aureus by CLSI method.
In assay [14] the test system is Staphylococcus. Kind of assay: Antimicrobial activity against linezolid-resistant coagulase-negative Staphylococcus by CLSI method.
In assay [15] the test system is Staphylococcus. Kind of assay: Antimicrobial activity against linezolid-resistant coagulase-negative Staphylococcus assessed as percent susceptible strain by CLSI method.
In assay [16] the test system is Staphylococcus. Kind of assay: Antimicrobial activity against Linezolid and methicillin-resistant coagulase-negative Staphylococcus by CLSI method.
The subject of assay [17] is Staphylococcus aureus. Nature of the assay: Antimicrobial activity against methicillin-resistant Staphylococcus aureus by CLSI method.

On to `CN[C@H](CC(C)C)C(=O)N[C@H]1C(=O)N[C@@H](CC(N)=O)C(=O)N[C@H]2C(=O)N[C@H]3C(=O)N[C@H](C(=O)N[C@H](C(=O)O)c4cc(O)cc(O)c4-c4cc3ccc4O)[C@H](O)c3ccc(c(Cl)c3)Oc3cc2cc(c3O[C@@H]2O[C@H](CO)[C@@H](O)[C@H](O)[C@H]2O[C@H]2C[C@](C)(N)[C@H](O)[C@H](C)O2)Oc2ccc(cc2Cl)[C@H]1O` [VANCOMYCIN], for which the MIC50 (as a rule, the lowest concentration that inhibits either 50% of growth or 50% of the strains tested, depending on the study) against Staphylococcus aureus [1] is 1 µg/mL (≈ 0.69 µM); in the assay on Staphylococcus aureus [3], 1 µg/mL (≈ 0.69 µM); against Staphylococcus aureus [5], 1 µg/mL (≈ 0.69 µM); in the assay with Staphylococcus aureus [7], 2 µg/mL (≈ 1.38 µM); with Staphylococcus [9], 2 µg/mL (≈ 1.38 µM); against Staphylococcus [11], 2 µg/mL (≈ 1.38 µM). Also, the MIC50 against Staphylococcus [13] and in the assay on Staphylococcus [14] was 2 µg/mL (≈ 1.38 µM) each time. The MIC90 (usually the lowest concentration that inhibits either 90% of growth or 90% of the strains tested, depending on the study) stood at 1 µg/mL (≈ 0.69 µM) in the assay on Staphylococcus aureus [1]; 1 µg/mL (≈ 0.69 µM) in the assay with Staphylococcus aureus [3]; 2 µg/mL (≈ 1.38 µM) with Staphylococcus aureus [5]; 2 µg/mL (≈ 1.38 µM) in the assay with Staphylococcus [9]; 2 µg/mL (≈ 1.38 µM) in the assay on Staphylococcus [11]; 2 µg/mL (≈ 1.38 µM) with Staphylococcus [13]. The Activity with Staphylococcus aureus [2] was determined as 99.6%; in the assay with Staphylococcus aureus [4] it was 100%; in the assay on Staphylococcus aureus [6] it was 99.2%; in the assay with Staphylococcus aureus [8] it was 100%; with Staphylococcus [10] it was 100%; in [12] it was 100%. Further, the Activity in the assay with Staphylococcus [15] was 100%. It took 2 µg/mL (≈ 1.38 µM) to inhibit growth against Staphylococcus [16] (MIC).
In the case of `CC(=O)N[C@@H]1[C@H](Oc2c3cc4cc2Oc2ccc(cc2Cl)[C@@H](O[C@@H]2O[C@@H](CO)[C@@H](O)[C@H](O)[C@@H]2NC(C)=O)[C@@H]2NC(=O)[C@H](NC(=O)[C@@H]4NC(=O)[C@H]4NC(=O)[C@@H](Cc5ccc(c(Cl)c5)O3)NC(=O)[C@H](N)c3ccc(O)c(c3)Oc3cc(O)cc4c3)c3ccc(O)c(c3)-c3c(O[C@H]4O[C@H](CO)[C@@H](O)[C@@H](O)[C@@H]4O)cc(O)cc3[C@@H](C(=O)O)NC2=O)O[C@@H](CO)[C@@H](O)[C@@H]1O`, the MIC90 came out at 1 µg/mL (≈ 0.566 µM) against Staphylococcus aureus [1]; 1 µg/mL (≈ 0.566 µM) in the assay on Staphylococcus aureus [3]; 1 µg/mL (≈ 0.566 µM) against Staphylococcus aureus [5]; 8 µg/mL (≈ 4.53 µM) in the assay on Staphylococcus [9]; 4 µg/mL (≈ 2.26 µM) in the assay on Staphylococcus [11]; 8 µg/mL (≈ 4.53 µM) against Staphylococcus [13]. The Activity was found to be 100% in the assay on Staphylococcus aureus [2]; 100% in the assay on Staphylococcus aureus [4]; 94.5% in the assay on Staphylococcus [10]; 100% in assay [12]; 80% with Staphylococcus [15]. The MIC50 with Staphylococcus aureus [3] was not above 0.5 µg/mL; against Staphylococcus aureus [7] it was 1 µg/mL (≈ 0.566 µM); in the assay on Staphylococcus [9] it was 2 µg/mL (≈ 1.13 µM); in the assay with Staphylococcus [11], 2 µg/mL (≈ 1.13 µM); in the assay on Staphylococcus [13] it was 2 µg/mL (≈ 1.13 µM); in the assay with Staphylococcus [14], 4 µg/mL (≈ 2.26 µM). Also, in the assay with Staphylococcus aureus [17], the result was Active.
